Article PMC7254505 (ACS Omega, 2020)

Assays:
ALK2 (R206H) = molecular target: T1, ALK2 (R206H) (Homo sapiens, UniProt Q04771, R206H); assay: In vitro enzyme assay; assay type: biochemical
T1 sequence (Q04771 21-509 R206H): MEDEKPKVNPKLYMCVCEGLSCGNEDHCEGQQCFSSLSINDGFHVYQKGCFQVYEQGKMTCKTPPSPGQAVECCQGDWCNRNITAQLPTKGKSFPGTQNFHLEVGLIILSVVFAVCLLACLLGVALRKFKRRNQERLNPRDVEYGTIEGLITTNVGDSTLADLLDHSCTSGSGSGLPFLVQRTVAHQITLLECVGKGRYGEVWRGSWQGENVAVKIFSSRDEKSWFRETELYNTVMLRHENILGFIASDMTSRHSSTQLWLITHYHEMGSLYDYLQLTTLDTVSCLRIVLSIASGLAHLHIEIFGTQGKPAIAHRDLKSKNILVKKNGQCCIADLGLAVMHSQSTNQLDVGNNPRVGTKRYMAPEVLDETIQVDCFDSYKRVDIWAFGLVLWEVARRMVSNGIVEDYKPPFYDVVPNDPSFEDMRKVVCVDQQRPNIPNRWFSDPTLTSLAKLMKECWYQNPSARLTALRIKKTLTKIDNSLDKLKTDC

CYP2C19 = CYP2C19 (Homo sapiens, UniProt P33261); assay: Cytochrome P450 inhibition, CYP2C19; assay type: in vitro ADME
CYP3A4 = CYP3A4 (Homo sapiens, UniProt P08684); assay: Cytochrome P450 inhibition, CYP3A4; assay type: in vitro ADME
CYP1A2 = molecular target: T2, CYP1A2 (Homo sapiens, UniProt P05177); assay: Cytochrome P450 inhibition, CYP1A2; assay type: in vitro ADME
T2 sequence (P05177 1-516): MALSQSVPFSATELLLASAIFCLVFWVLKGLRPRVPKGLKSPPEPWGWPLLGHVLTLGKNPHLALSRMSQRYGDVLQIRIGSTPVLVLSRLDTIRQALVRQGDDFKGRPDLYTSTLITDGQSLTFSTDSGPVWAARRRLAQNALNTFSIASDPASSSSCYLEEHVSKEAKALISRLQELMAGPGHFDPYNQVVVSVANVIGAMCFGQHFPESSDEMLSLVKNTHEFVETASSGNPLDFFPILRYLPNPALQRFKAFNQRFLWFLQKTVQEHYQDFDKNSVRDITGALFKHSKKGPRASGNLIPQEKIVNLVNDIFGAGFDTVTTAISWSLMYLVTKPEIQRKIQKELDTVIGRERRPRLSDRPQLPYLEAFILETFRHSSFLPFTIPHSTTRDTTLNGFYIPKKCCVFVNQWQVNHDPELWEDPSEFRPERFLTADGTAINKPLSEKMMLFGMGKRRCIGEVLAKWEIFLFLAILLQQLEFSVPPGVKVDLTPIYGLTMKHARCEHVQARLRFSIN

HepG2 cells = assay: In vitro toxicity, HepG2 cell viability; assay type: cell-based
[1] = cited from earlier work
CYP2D6 = CYP2D6 (Homo sapiens, UniProt P10635); assay: Cytochrome P450 inhibition, CYP2D6; assay type: in vitro ADME
Aqueous solubility = assay type: physicochemical
[2] = cited from earlier work; remark: listed apart in the source
Partition coefficient = assay type: physicochemical
Plasma protein binding = assay type: in vitro ADME
CYP2C9 = CYP2C9 (Homo sapiens, UniProt P11712); assay: Cytochrome P450 inhibition, CYP2C9; assay type: in vitro ADME
ALK2 over ALK5 = settings: cited from earlier work

Chain of CYP3A4 (P08684 whole entry): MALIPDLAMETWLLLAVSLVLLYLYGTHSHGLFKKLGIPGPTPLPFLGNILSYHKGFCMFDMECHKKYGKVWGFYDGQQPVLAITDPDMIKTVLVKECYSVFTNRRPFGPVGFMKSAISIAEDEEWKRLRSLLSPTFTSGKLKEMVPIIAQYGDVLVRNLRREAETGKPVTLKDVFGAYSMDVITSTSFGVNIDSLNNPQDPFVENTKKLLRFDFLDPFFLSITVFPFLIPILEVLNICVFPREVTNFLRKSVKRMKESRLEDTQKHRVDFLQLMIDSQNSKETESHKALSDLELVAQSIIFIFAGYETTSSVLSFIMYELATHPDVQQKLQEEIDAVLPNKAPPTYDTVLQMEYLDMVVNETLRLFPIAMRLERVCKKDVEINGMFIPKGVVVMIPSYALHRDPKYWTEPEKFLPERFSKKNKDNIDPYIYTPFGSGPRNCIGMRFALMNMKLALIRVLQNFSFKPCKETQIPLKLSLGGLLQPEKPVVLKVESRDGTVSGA
Chain of CYP2C19 (P33261 whole entry): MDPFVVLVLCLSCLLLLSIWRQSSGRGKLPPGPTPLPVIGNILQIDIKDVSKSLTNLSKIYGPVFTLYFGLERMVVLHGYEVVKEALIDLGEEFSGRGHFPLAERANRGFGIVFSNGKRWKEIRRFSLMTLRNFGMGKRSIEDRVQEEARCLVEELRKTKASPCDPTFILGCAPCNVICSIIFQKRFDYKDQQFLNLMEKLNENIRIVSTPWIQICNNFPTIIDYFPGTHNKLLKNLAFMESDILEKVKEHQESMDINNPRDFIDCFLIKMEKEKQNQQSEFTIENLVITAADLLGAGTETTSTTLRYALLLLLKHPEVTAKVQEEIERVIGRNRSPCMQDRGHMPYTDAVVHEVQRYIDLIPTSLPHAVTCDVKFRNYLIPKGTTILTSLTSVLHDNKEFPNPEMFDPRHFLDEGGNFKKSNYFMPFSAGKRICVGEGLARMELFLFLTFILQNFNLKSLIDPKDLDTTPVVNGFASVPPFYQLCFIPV
Chain of CYP2D6 (P10635 whole entry): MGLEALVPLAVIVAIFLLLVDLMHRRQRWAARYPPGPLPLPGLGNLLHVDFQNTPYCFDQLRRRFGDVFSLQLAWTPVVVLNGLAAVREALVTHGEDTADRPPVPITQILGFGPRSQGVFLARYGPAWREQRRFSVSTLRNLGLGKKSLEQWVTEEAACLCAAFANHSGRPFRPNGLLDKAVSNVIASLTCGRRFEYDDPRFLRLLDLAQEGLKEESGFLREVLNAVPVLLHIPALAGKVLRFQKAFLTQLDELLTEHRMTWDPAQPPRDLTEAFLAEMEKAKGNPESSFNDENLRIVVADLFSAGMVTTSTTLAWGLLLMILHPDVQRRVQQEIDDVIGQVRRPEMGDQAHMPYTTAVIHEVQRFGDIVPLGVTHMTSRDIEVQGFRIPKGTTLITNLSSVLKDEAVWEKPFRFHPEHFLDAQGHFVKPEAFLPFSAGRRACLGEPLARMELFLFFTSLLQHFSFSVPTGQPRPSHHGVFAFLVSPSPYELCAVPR
Chain of CYP2C9 (P11712 whole entry): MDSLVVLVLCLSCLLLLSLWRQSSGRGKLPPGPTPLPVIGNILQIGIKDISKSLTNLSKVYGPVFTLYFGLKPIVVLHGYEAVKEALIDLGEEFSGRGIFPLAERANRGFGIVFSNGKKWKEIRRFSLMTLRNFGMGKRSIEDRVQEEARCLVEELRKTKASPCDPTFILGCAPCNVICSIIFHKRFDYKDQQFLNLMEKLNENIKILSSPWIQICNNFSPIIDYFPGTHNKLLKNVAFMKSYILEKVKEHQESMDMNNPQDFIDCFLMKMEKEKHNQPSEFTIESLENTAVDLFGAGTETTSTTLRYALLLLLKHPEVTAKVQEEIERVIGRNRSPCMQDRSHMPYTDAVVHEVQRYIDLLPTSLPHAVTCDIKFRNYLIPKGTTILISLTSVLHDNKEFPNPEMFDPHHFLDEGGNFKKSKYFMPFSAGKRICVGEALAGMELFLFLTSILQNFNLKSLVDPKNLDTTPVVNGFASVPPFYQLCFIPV

Structure (SMILES): c1cncc(-c2n[nH]cc2-c2ccnc(Nc3ccc(N4CCNCC4)cc3)n2)c1 [Compound 1, N-[4-(Piperazin-1-yl)phenyl]-4-(3-pyridin-3-yl-1H-pyrazol-4-yl)pyrimidin-2-amine]
- IC50 (ALK2 (R206H)): 47.9 nM

Structure (SMILES): c1ccc2c(-c3cnn4cc(-c5ccc(N6CCNCC6)cc5)cnc34)ccnc2c1 [LDN-193189]
- CYP2C19 % inh. at 10 μM (CYP2C19): 34%
- CYP3A4 % inh. at 10 μM (CYP3A4): 82%
- CYP1A2 % inh. at 10 μM (CYP1A2): 28%
- in vitro toxicity HepG2 cell (% viability at 30 μM) (HepG2 cells): 77%
- solubility in aqueous solutions (in words) [1]: poorly soluble
- CYP2D6 % inh. at 10 μM (CYP2D6): 30%
- aqueous solubility at pH 7.4 (Aqueous solubility): 10.6 μg/mL
- binding to serum proteins (in words) [2]: highly bound
- partition coefficient (log D, n-octanol/PBS, pH 7.4) (Partition coefficient): 2.26
- PPB human (%) at 10 μM (Plasma protein binding): 97.8%
- CYP2C9 % inh. at 10 μM (CYP2C9): 30%

Structure (SMILES): c1cc(-c2cnn3cc(-c4ccc(N5CCNCC5)cc4)cnc23)c2cccnc2c1 [LDN-212854]
- solubility in aqueous solutions (in words) [1]: poorly soluble
- binding to serum proteins (in words) [2]: highly bound

Structure (SMILES): COc1cc(-c2cc(-c3ccc(N4CCNCC4)cc3)cnc2C)cc(OC)c1OC [LDN-214117]
- selectivity for ALK2 over ALK5 (ALK2 over ALK5): more than 100 fold
